Tests used:
[1] = system: Human immunoselected Stro-1+ Progenitor cells; assay: Hyaluronan biosynthesis, 3H-glucosamine incorporation, Superdex-S200 before/after Hyalase, 9 day micromass; format: cell-based
From the text: FIG. 27. Chromatographic elution profiles showing the effects of polysulfated polysaccharides on the biosynthesis of Hyaluronan (HA) and by progenitor cells by measuring the incorporation of ^3H-glucosamine into HA. […] The % difference in areas under the profiles of the digested and pre-digested samples in the void volume fractions represents the amounts of ^3H-HA released into the media by the PPS concentration specified.
Human immunoselected Stro-1+ Progenitor cells (Mesoblast Ltd, Melbourne, Australia) were established in micromass cultures in 24 well plates using the method described above but seeding the progenitor cells at a density of 7×10^5 cells/well. After 24 hours in culture the media was changed and replaced with DMEM culture medium containing 10% FCS and 25 μg/ml gentamicin containing PPS (Bene-Arzneimittel, Munich, […]) which had been sterilised through a 0.22 μm filter. The cultures were incubated in 5% CO2/95% moist air at 37° C. for 8 days with media changes containing the indicated concentrations of PPS every 3 days. On the 8th day ^3H-glucosamine was added to culture medium containing the indicated concentrations of PPS to provide a solution containing 1.0 μCi/ml which was added to each well. The plates were incubated for a further 24 h. At termination of the cultures on day 9, media was collected into 5 ml capped tubes and stored at 4° C. prior to size exclusion chromatography as described below.
Two aliquots of 0.5 ml from each media sample were labelled A and B. 20 μl of 1 M acetic acid, pH 6.0 was added to all aliquots. 50 μl of reaction buffer (20 mM Na-acetate and 0.15 M NaCl, pH 6.0) was added to aliquot A and 50 μl of 5 TRU Streptomyces hyaluronidase (HYALASE) in reaction buffer was added to aliquot B. All samples were incubated at 60° C. for 3 h followed by boiling for 5 min to inactivate the added hyaluronidase. The samples were stored at −20° C. prior to gel filtration.
A Gel filtration column prepacked with Superdex-S200 was used to isolate and identify ^3H-HA and ^3H-PGs in culture media. Media samples were routinely centrifuged at high speed on a bench Microfuge for 10 min immediately before loading to the column. Samples (200 μl of each) were injected into the column through sample loop and the column was eluted with PBS buffer (0.15 M NaCl, 0.05 M Na2PO4, pH 7.2) at the flow rate of 0.2 ml/1 min. The column eluent was collected at 1.0 ml/fraction for total of 186 fractions and radioactivity was determined using a β-scintillation counter.

[2] = system: human progenitor cells; assay: Proteoglycan synthesis in micromass cultures, 5 days; format: cell-based; conditions: FIG. 17
From the text: FIG. 17. Bar graphs showing the concentration dependent effects of PPS on proteoglycan synthesis by human progenitor cells in micromass cultures for 5 days. Data is presented as 35S-GAG radioactivity and as a percentage of control taken as 100%. * P<0.05 relative to control.
FIG. 19. Bar graphs showing the concentration dependent effects of (A) Hyaluronan (Supartz™) and (B) Dextran Polysulfate on proteoglycan synthesis by human progenitor cells in micromass cultures for 5 days. Data is presented as ^35S-GAG radioactivity and as a percentage of control, taken as 100% or as DPM/ug DNA. * P<0.05 relative to control.
The technique used was based on that described by (Denker A E, Haas A R, Nicoll S B and Tuan R S. Chondrogenic differentiation of murine C3H10T1/2 multipotential progenitor cells: I. Stimulation by bone morphogenetic protein-2 in high density micromass cultures. Differentiation (1999); 64: 67-76). Briefly murine Progenitor cells (cell lines C3H10T1/2 or ATDC5) purchased from RIKEN Cell Bank (Tsukuba, Japan) or human immunoselected Stro-1+ Progenitor cells (Mesoblast Ltd, Melbourne, Australia) Ten microlitres (10 μl) of a suspension of the progenitor cells (1×10^7 cells/ml in Ham's F12 medium+10% FBS) were applied to individual wells of a 24-well plates. After incubatation at 37° C. in a humidified atmosphere of 5% CO2/95% air for 2-3 hours, 900 μl of Ham's F12 medium (10% FBS) and 100 μl of PPS solution in the same medium were added slowly into the wells to afford final concentrations of PPS in each of 0, 0.1, 0.5, 1.0, 2.5, 5.0, 10.0, 20.0 μg/ml alone or in combination with rhNC4 (0, 0.1, 0.5, 1.0, 2.5, 5.0, 10.0, 25.0 μg/ml). Each drug concentration was repeated in triplicate. The cells were maintained in culture for up to 10 days. The medium with/without drugs was changed every 3 days but 24 hours before termination of the experiment 80 μl of 50 μCi/ml ^35S-H2SO4 was added to achieve a final ^35SO4 concentration of 5 μCi/ml. The following day, the cells in one of the plates were trypsinized with 150 μl/well of 2.5% trypsin and separated from the medium by centrifugation at 800 g for 10 minutes, washed with 500 μl of 1×PBS and stored in liquid nitrogen for RNA and/or DNA extraction and analysis. Media and supernatants were combined in one tube for each concentration of PPS used. To the tubes was added, 200 μl of 5× Papain solution [2.5 mg/ml Papain, 7.9 mg/ml L-Cysteine in Papain buffer (0.1 M NaAC, 5 mM EDTA, pH6.0)] and the solution incubated at 65° C. for 2 hours. After papain digestion, Four aliquots of 200 μl of digested solution were transferred to a 96-well plate (200 μl/well). The ^35S-GAG released by the digestion step were separated from the free ^35SO4 by adding 20 μl 5% CPC and 10 μl 1 mg/ml CSA with gentle shaking at 300 rpm RT for 20-30 min to precipitate the ^35S-GAG-CPC complexes. The precipitates were collected by filtered through glass fibre filters using a cell harvester. The filters were then air-dried and discs punched to scintillation vials. 3 ml/vial scintillation cocktail liquid was added and vortexed for 30-45 sec. The radioactivity of ^35S—SO4 incorporated the ^35S-GAG-CPC complexes was measured by scintillation counting.
Data is presented as 35S-GAG radioactivity and as a percentage of control taken as 100%. * P<0.05 relative to control.
Similar experiments were undertaken using Hyaluronic acid (SuperArtz (SKK, Tokyo, Japan)) and Dextran polysulfate (MW=5000) (Sigma, Sydney, Australia) in place of PPS. […] Data is presented as 35S-GAG radioactivity and as a percentage of control taken as 100% or as DPM/ug DNA. * P<0.05 relative to control.

## pentosan polysulfate [PPS]
[1]; PPS 0.1 micrograms/mL (profile not shown)
  3H-glucosamine radioactivity incorporated into HA (media): 35.5%
[1]; PPS 0.1 micrograms/mL and 1.0 micrograms/mL only
  levels of newly synthesized 3H-HA in the culture media: substantial increases
[1]; PPS 1 microgram/mL, FIG. 27C
  3H-glucosamine radioactivity incorporated into HA (media): 49.6%
  radioactivity in post digestion void volume fractions of PG monomers: 50.4%
[1]; PPS 2.5 micrograms/mL
  3H-glucosamine incorporated into HA (media): about 11%
[1]; micromass cultures, media
  PPS concentration of maximum synthesis of HA: 1.0 micrograms/mL
[1]; micromass, FIG. 27
  biosynthesis of HA by cultured progenitor cells: stimulates the biosynthesis of HA
[1]; the lower concentration of PPS (FIG. 27B)
  3H-glucosamine radioactivity found in the HA fractions (media): 15.1%
[2]; 2.5 micrograms/mL, 5 day micromass cultures
  maximum stimulation of PG synthesis: 30%
[2]; PPS 0.5-10 μg/ml, 5 day micromass
  proteoglycan synthesis: Increased proteoglycan synthesis

From US9888679B2, “Protection of progenitor cells and regulation of their differentiation” (Proteobioactives Pty Ltd, priority 2007, dated 2018)
